Data as given in US8557872B2, “Compounds, isomer thereof, or pharmaceutically acceptable salts thereof as vanilloid receptor antagonist; and pharmaceutical compositions containing the same” (Amorepacific Corporation, priority 2008, dated 2013).
Read-outs that look alike come from different tables or passages of the source.

How the values were obtained:
[1] = target: T1, vanilloid receptor (Rattus norvegicus, UniProt O35433); experiment: 45Ca influx test (calcium uptake) in primary cultured DRG neurons, capsaicin 0.5 μM; format: cell-based
T1 construct: DRG nerve cells from the primary culture of 2 days were equilibrated by washing 4 times; endogenous in cells; host or cells: primary culture of dorsal root ganglion neurons from neonatal SD rats
T1 sequence (O35433 whole entry): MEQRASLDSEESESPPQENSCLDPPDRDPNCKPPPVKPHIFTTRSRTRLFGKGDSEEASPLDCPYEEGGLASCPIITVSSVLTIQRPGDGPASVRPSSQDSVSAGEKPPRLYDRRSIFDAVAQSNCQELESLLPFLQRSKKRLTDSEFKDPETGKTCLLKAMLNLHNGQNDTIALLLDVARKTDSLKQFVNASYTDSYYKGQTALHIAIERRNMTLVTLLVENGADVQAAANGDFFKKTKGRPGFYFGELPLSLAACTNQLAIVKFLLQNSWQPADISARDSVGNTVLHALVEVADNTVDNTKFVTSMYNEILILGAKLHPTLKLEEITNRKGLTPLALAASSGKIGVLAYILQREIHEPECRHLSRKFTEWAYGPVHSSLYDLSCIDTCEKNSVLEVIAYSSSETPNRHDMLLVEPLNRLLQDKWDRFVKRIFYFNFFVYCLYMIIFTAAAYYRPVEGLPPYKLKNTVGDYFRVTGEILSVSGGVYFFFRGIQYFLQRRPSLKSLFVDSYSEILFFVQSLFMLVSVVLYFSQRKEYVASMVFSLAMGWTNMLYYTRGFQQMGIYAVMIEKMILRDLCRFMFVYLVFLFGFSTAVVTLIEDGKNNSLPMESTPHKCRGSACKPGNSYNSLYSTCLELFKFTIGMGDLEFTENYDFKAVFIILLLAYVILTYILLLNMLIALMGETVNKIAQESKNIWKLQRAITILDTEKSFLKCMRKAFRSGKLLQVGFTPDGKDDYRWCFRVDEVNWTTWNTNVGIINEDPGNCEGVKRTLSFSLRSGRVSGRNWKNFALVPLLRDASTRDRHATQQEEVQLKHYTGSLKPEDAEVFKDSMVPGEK
Experimental: 1) Separation of Spinal Dorsal Root Ganglia (DRG) in Newborn Rats and Primary Culture Thereof
Neonatal (2-3 day old or younger than 2-3 day old) SD rats were put in ice for 5 minutes to anesthetize and disinfected with 70% ethanol. […] The DRG were incubated sequentially at 37° C. for 30 mins in 200 U/ml collagenase and 2.5 mg/ml trypsin, separately. The ganglia were washed twice with DME/F12 medium supplemented with 10% horse serum, triturated through a fire-polished Pasteur pipette, filtered through Nitex 80 membrane to obtain single cell suspension and the suspension was washed once more. This was subjected to centrifugation, then resuspended in cell culture medium at certain level of cell density. As the cell culture medium, DME/F12 medium supplemented with 10% horse serum was diluted with identical medium conditioned by C6 glioma cells 2 days on a confluent monolayer (1:1), and NGF (Nerve Growth Factor) was added to adjust 200 ng/ml as final concentration. After the cells were grown 2 days in medium where cytosine arabinoside (Ara-C, 100 μM) was added to kill dividing nonneuronal cells, medium was changed to one without Ara-C. The resuspended cells were plated at a density of 1500-2000 neurons/well onto Terasaki plates previously coated with 10 μg/ml poly-D-ornithine.
2) ^45Ca Influx Experiments
DRG nerve cells from the primary culture of 2 days were equilibrated by washing 4 times with HEPES (10 mM, pH 7.4)-buffered Ca^2+, Mg^2+-free HBSS (H-HBSS). The solution in each well was removed from the individual well. Medium containing the test compound plus capsaicin (final concentration 0.5 μM) and ^45Ca (final concentration 10 μCi/ml) in H-HBSS was added to each well and incubated at room temperature for 10 mins. Terasaki plates were washed five times with H-HBSS and dried at room temperature. To each well, 0.3% SDS (10 μl) was added to elute ^45Ca. After the addition of scintillation cocktail of into each well, the amount of ^45Ca influx into neuron was measured by counting radioactivity.

[2] = PK study in rats, single oral administration; format: in vivo, rat; set-up: AUC: concentration or dose not given beside the values; settings: rat, single oral administration, plasma
Experimental: Pharmacokinetics of compounds in rats were analyzed using the following experiment. Rats were fasted overnight prior to administration and until approximately 4 hours after administration. Rats were given a single oral administration of compound at same dose. Administration volume was 10 ml/kg. Blood samples were collected from the retro-orbital sinus at various times over the following 7 hrs. Immediately after each collection, plasmas were separated from blood cells by centrifugation and stored at −20° C. until the analysis was performed. The plasma samples were analyzed using a reverse phase high-performance chromatography (HPLC) method.

[3] = Table 3, detection limit 0.100 mcg/ml
[4] = rat DRG neurons, capsaicin 0.5 μM, 45Ca, read-out: Antagonist Calcium Uptake Test (IC50)
[5] = Table 2, read-out: T½ (converted)

Row | SMILES | IC50 [1, 4] [nM] | other results
1 | CCCNc1cc(C(C)(C)C)ccc1/C=C/C(=O)NCc1cc(F)c(NS(C)(=O)=O)c(F)c1 [Comp Cpd D, reference compound] |  | IC50 ([1]; Table 3, comparative compounds having tert-butyl-phenyl, read-out: IC50): 85 nM; Cmax [2, 3]: < 100 ng/mL
2 | CCCOc1cc(C(F)(F)F)ccc1/C=C/C(=O)N[C@H](C)c1cc(F)c(NS(C)(=O)=O)c(F)c1 [Example 5, (R)—N-[1-(3,5-Difluoro-4-methanesulfonylamino-phenyl)-ethyl]-3-(2-propoxy-4-trifluoromethyl-phenyl)-acrylamide] | 120 | AUC ([2]; Table 2): 22500 ng·h/mL; Cmax ([2]; Table 2): 2630 ng/mL; Tmax ([2]; Table 2): 3.5 h; half-life [2, 5]: 4.3 h
3 | CCCc1cc(C(F)(F)F)ccc1/C=C/C(=O)N[C@H](C)c1cc(F)c(NS(C)(=O)=O)c(F)c1 [Example 21, N-[1-(3,5-Difluoro-4-methanesulfonylamino-phenyl)-ethyl]-3-(2-propyl-4-trifluoromethyl-phenyl)-acrylamide] | 19 | AUC ([2]; Table 2): 16400 ng·h/mL; Cmax ([2]; Table 2): 2720 ng/mL; Tmax ([2]; Table 2): 2 h; half-life [2, 5]: 3.5 h
4 | CC(C)(C)c1ccc(/C=C/C(=O)NCc2cc(F)c(NS(C)(=O)=O)c(F)c2)cc1 [Comp Cpd B, reference compound] |  | AUC ([2]; Table 3): 72 ng·h/mL; Tmax ([2]; Table 3): 0.5 h; Cmax [2, 3]: 69 ng/mL; half-life ([2]; Table 3, read-out: T½ (converted)): 0.462 h
5 | CCCc1cc(C(F)(F)F)ccc1/C=C(\C)C(=O)N[C@H](C)c1cc(F)c(NS(C)(=O)=O)c(F)c1 [Example 48, (R)—N-[1-(3,5-Difluoro-4-methanesulfonylamino-phenyl)-ethyl]-2-methyl-3-(2-propyl-4-trifluoromethyl-phenyl)-acrylamide] | 530 | 
6 | CCOc1cc(C(F)(F)F)ccc1/C=C/C(=O)N[C@H](C)c1cc(F)c(NS(C)(=O)=O)c(F)c1 [Example 7, (R)—N-[1-(3,5-Difluoro-4-methanesulfonylamino-phenyl)-ethyl]-3-(2-ethoxy-4-trifluoromethyl-phenyl)-acrylamide] | 110 | 
7 | C=Cc1cc(CNC(=O)/C=C/c2ccc(C(C)(C)C)cc2NC(C)C)cc(F)c1NS(C)(=O)=O [Comp Cpd C, reference compound] |  | Cmax [2, 3]: < 100 ng/mL
8 | C=Cc1cc(CNC(=O)/C=C/c2ccc(C(C)(C)C)cc2)cc(F)c1NS(C)(=O)=O [Comp Cpd A, reference compound] |  | Cmax [2, 3]: < 100 ng/mL
9 | CCOc1cc(C(F)(F)F)ccc1/C=C/C(=O)N[C@H](C)c1ccc(NS(C)(=O)=O)c(F)c1 [Example 9, (R)—N-[1-(3-Fluoro-4-methanesulfonylamino-phenyl)-ethyl]-3-(2-ethoxy-4-trifluoromethyl-phenyl)-acrylamide] | 340 | 
10 | CCCCc1cc(C(F)(F)F)ccc1/C=C/C(=O)N[C@H](C)c1ccc(NS(C)(=O)=O)c(F)c1 [Example 36, (R)-3-(2-Butyl-4-trifluoromethyl-phenyl)-N-[1-(3-fluoro-4-methanesulfonylamino-phenyl)-ethyl]-acrylamide] | 46 | 
11 | CCCNc1cc(C(F)(F)F)ccc1CCC(=O)N[C@H](C)c1cc(F)c(NS(C)(=O)=O)c(F)c1 [Example 55, (R)—N-[1-(3,5-difluoro-4-methanesulfonylamino-phenyl)-ethyl]-3-(2-propylamino-4-trifluoromethyl-phenyl)-propionamide] | 190 | 
12 | CCCNc1cc(C(F)(F)F)ccc1/C=C/C(=O)NCc1cc(C)c(NS(C)(=O)=O)c(F)c1 [Example 11, N-(3-Fluoro-4-methanesulfonylamino-5-methyl-benzyl)-3-(2-propylamino-4-trifluoromethyl-phenyl)-acrylamide] | 62 | 
13 | CCCCOc1cc(C(F)(F)F)ccc1/C=C/C(=O)N[C@H](C)c1cc(F)c(NS(C)(=O)=O)c(F)c1 [Example 31, (R)-3-(2-Butoxy-4-trifluoromethyl-phenyl)-N-[1-(3,5-difluoro-4-methanesulfonylamino-phenyl)-ethyl]-acrylamide] | 110 | 
14 | CC(C)Oc1cc(C(F)(F)F)ccc1/C=C/C(=O)N[C@H](C)c1cc(F)c(NS(C)(=O)=O)c(F)c1 [Example 26, (R)—N-[1-(3,5-Difluoro-4-methanesulfonylamino-phenyl)-ethyl]-3-(2-isopropoxy-4-trifluoromethyl-phenyl)-acrylamide] | 47 | 
15 | CCCCc1cc(C(F)(F)F)cc(CCCC)c1/C=C/C(=O)N[C@H](C)c1cc(F)c(NS(C)(=O)=O)c(F)c1 [Example 16, (R)-3-(2,6-Dibutyl-4-trifluoromethyl-phenyl)-N-[1-(3,5-difluoro-4-methanesulfonylamino-phenyl)-ethyl]-acrylamide] | 220 | 
16 | C#Cc1cc(CNC(=O)/C=C/c2ccc(C(F)(F)F)cc2CCC)cc(F)c1NS(C)(=O)=O [Example 35, N-(3-Ethynyl-5-fluoro-4-methanesulfonylamino-benzyl)-3-(2-propyl-4-trifluoromethyl-phenyl)-acrylamide] | 92 | 
17 | CCCCOc1cc(C(F)(F)F)ccc1/C=C/C(=O)N[C@H](CC)c1cc(F)c(NS(C)(=O)=O)c(F)c1 (stereo in doubt) [Example 38, 3-(2-Butoxy-4-trifluoromethyl-phenyl)-N-[1-(3,5-difluoro-4-methanesulfonylamino-phenyl)-propyl]-acrylamide] | 1100 | 
18 | CCNc1cc(F)ccc1/C=C/C(=O)N[C@H](C)c1cc(F)c(NS(C)(=O)=O)c(F)c1 [Example 42, (R)—N-[1-(3,5-Difluoro-4-methanesulfonylamino-phenyl)-ethyl]-3-(2-ethylamino-4-fluoro-phenyl)-acrylamide] | 110 | 
19 | CCCNc1cc(C(F)(F)F)ccc1CCC(=O)NCc1cc(F)c(NS(C)(=O)=O)c(F)c1 [Example 56, N-(3,5-difluoro-4-methanesulfonylamino-benzyl)-3-(2-propylamino-4-trifluoromethyl-phenyl)-propionamide] | 350 | 
20 | CCNc1cc(C(F)(F)F)ccc1/C=C/C(=O)NCc1cc(F)c(NS(C)(=O)=O)c(F)c1 [Example 18, N-(3,5-Difluoro-4-methanesulfonylamino-benzyl)-3-(2-ethylamino-4-trifluoromethyl-phenyl)-acrylamide] | 83 | 
21 | CCCNc1cc(C(F)(F)F)ccc1/C=C/C(=O)NCc1cc(F)c(NS(C)(=O)=O)c(C#N)c1 [Example 13, N-(3-Cyano-5-fluoro-4-methanesulfonylamino-benzyl)-3-(2-propylamino-4-trifluoromethyl-phenyl)-acrylamide] | 120 | 
22 | C=Cc1cc(CNC(=O)/C=C/c2ccc(C(F)(F)F)cc2NCCC)cc(F)c1NS(C)(=O)=O [Example 12, N-(3-Fluoro-4-methanesulfonylamino-5-vinyl-benzyl)-3-(2-propylamino-4-trifluoromethyl-phenyl)-acrylamide] |  | IC50 ([1]; comparison with comparative compounds F and G, read-out: IC50 value): 150 nM
23 | CCCc1cc(C(F)(F)F)cc(CCC)c1/C=C/C(=O)N[C@H](C)c1cc(F)c(NS(C)(=O)=O)c(F)c1 [Example 6, (R)—N-[1-(3,5-Difluoro-4-methanesulfonylamino-phenyl)-ethyl]-3-(2,6-dipropyl-4-trifluoromethyl-phenyl)-acrylamide] | 26 | 
24 | CCCOc1cc(F)ccc1/C=C/C(=O)N[C@H](C)c1cc(F)c(NS(C)(=O)=O)c(F)c1 [Example 27, (R)—N-[1-(3,5-Difluoro-4-methanesulfonylamino-phenyl)-ethyl]-3-(4-fluoro-2-propoxy-phenyl)-acrylamide] | 170 | 
